Assay results from paper PMC2693121 (Molecular cell, 2009).

Tests used:
Mcs6 = Mcs6 (Schizosaccharomyces pombe, UniProt Q12126, L87G); experiment: radiometric kinase assay with [γ-32P]-ATP on GST-Rpb1-CTD; assay type: biochemical
Cdk9 = Cdk9 (Schizosaccharomyces pombe, UniProt Q96WV9, T120G); experiment: radiometric kinase assay with [γ-32P]-ATP on GST-Spt5; assay type: biochemical
Cdk9, sequence (O74880 whole entry): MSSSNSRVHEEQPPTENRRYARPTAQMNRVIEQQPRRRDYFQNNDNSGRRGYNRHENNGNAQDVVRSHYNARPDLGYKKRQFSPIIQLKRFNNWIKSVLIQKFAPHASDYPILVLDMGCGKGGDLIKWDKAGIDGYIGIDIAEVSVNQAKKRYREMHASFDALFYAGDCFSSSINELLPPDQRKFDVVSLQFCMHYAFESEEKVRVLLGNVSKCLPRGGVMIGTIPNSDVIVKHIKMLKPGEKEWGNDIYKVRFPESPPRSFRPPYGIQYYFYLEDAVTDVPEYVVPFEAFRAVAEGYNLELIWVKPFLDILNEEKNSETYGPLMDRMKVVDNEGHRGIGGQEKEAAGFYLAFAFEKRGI
Cdk9, sequence (O74627 whole entry, further chain): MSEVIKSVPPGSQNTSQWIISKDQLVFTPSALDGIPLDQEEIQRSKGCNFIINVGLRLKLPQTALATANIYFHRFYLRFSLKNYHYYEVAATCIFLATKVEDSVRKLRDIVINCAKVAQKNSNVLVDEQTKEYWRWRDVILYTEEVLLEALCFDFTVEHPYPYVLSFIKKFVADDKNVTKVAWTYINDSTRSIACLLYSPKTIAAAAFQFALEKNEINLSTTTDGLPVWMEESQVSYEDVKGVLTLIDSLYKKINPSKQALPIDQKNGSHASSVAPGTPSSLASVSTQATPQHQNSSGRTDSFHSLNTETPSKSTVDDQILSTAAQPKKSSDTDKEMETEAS
Cdk9, sequence (Q96WV9 whole entry, stated change not applied): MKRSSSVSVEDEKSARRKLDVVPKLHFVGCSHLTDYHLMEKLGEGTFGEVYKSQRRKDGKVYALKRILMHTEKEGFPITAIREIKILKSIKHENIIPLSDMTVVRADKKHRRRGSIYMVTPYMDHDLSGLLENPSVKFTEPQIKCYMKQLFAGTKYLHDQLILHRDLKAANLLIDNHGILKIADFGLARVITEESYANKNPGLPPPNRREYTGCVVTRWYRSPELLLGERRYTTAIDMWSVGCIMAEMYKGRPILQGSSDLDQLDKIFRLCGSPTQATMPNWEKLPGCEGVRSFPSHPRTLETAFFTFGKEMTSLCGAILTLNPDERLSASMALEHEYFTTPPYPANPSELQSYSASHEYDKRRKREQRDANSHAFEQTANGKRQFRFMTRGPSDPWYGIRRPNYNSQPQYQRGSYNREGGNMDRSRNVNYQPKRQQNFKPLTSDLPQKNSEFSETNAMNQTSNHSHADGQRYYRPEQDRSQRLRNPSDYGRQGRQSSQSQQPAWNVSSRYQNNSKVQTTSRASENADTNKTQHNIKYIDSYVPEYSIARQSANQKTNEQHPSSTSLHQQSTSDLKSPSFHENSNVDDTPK

Mcs6, sequence (P36613 whole entry): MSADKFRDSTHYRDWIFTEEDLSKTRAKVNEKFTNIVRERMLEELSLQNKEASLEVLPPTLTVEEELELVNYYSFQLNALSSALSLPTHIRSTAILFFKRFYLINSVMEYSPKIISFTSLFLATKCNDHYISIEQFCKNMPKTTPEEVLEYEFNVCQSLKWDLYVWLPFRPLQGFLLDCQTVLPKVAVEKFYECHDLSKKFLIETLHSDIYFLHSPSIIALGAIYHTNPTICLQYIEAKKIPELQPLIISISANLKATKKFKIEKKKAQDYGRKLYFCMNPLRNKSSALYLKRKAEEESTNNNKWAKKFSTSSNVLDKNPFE
Mcs6, sequence (Q12126 whole entry, stated change not applied): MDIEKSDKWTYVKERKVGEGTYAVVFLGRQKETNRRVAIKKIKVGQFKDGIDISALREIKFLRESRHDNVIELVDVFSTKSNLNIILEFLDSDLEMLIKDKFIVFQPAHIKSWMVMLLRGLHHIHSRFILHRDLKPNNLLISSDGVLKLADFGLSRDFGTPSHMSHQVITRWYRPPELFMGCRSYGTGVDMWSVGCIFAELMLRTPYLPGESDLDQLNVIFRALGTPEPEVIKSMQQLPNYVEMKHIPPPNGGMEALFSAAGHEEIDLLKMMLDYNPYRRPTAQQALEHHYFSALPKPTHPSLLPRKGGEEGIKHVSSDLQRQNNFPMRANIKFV
Mcs6, sequence (O94684 whole entry, further chain): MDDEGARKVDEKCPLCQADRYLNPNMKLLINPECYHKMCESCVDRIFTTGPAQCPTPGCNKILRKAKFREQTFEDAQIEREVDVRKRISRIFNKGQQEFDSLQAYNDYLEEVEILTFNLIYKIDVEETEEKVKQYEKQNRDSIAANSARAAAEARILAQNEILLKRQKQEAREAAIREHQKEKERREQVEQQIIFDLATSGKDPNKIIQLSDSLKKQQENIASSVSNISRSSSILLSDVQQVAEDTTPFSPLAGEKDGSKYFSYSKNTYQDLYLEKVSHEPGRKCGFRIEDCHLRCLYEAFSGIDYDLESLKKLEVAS

Cc1cccc(Cc2nn(C(C)(C)C)c3ncnc(N)c23)c1 [3-MB-PP1]
IC50 (Mcs6): ~125 nM | IC50 (Cdk9): ~25 nM

CC(C)(C)n1nc(Cc2cccc3ccccc23)c2c(N)ncnc21 [1-NM-PP1]
IC50 (Cdk9): ~500 nM
